# Tested on: not given
# Experiment: not given
# Conditions: reported by US EPA (RED); cited from earlier work
row,SMILES,deaths among DEET-associated seizure cases [deaths]
1,"CCN(CC)C(=O)c1cccc(C)c1 [DEET, N,N-Diethyl-meta-toluamide]",4

# Tested on: mosquitoes
# Experiment: not given
# Conditions: absence of body odor attractants such as 1-octen-3-ol, lactic acid, or carbon dioxide; cited from earlier work
row,SMILES,repellent activity in a behavioral test
1,"CCN(CC)C(=O)c1cccc(C)c1 [DEET, N,N-Diethyl-meta-toluamide]",strong repellent activity

# Tested on: flies
# Experiment: Repellency index of coumarin derivatives evaluated in vivo (index from −1 to 1, function of a number of flies)
# Set-up: key to Repellency Index: index from −1 to 1, 1 = highly repellent
# Conditions: experimental index ranging from −1 to 1 (1 = highly repellent); measurement error about ±0.1; data set of USSN 61,501,485
# Protocol: Up until now, all existing models for repellency have been based on protection time value, which is different for each. Moreover, the environmental parameters in which the animals are studied are frequently different. As a consequence, data produced using different models cannot be combined/compared. […] The numerical value obtained was not a protection time but rather an index ranging from −1 to 1 (with 1 being highly repellent). This number was calculated for each experiment and is function of a number of flies.
# To minimize the deleterious effects of these potentially confounding factors, “repellency classes” were established. Based on the repellency index values, the dataset was divided into 2, 3, 4 or 5 repellency class subsets, in order to reduce the difficulty of modeling the property of slightly repellent molecules. For example, in the four classes' models, the thresholds between the classes are defined as follow: […]
row,SMILES,Repellency Index
1,CC(C)COc1cc(=O)oc2ccccc12 [EV07070],0.94
2,CC(C)COc1ccc2oc(=O)ccc2c1 [EV07072],0.98
3,CCCCCCC(C)Oc1cc(=O)oc2ccccc12 (stereo not drawn) [EV07078],0.91
4,CCCCC(CC)C(=O)Oc1ccc2ccc(=O)oc2c1 (stereo not drawn) [EV 04016],0.11
5,C/C=C(\C)C(=O)Oc1ccc2ccc(=O)oc2c1 [EV 04024],0.26
6,CCC(C)C(=O)Oc1ccc2ccc(=O)oc2c1 (stereo not drawn) [EV 04030],−0.10
7,C=CCOc1ccc2ccc(=O)oc2c1 [EV 04032],0.19
8,CCCCOc1ccc2ccc(=O)oc2c1 [EV 04036],−0.06
9,CCC(C)OC(=O)N1CCCCC1CCOc1ccc2ccc(=O)oc2c1 (stereo not drawn) [EV 04042],0.43
10,CC(C)Oc1ccc2ccc(=O)oc2c1 [EV 04054],0.66
11,CCC(C)Oc1ccc2ccc(=O)oc2c1 (stereo not drawn) [EV 04058],0.76
12,CCC(C)CC(=O)Oc1ccc2ccc(=O)oc2c1 (stereo not drawn) [EV 04062],0.04
13,CCC(C)Oc1ccc2ccc(=O)oc2c1 (stereo not drawn) [EV 04070],0.83
14,CC1CCCCC1Oc1ccc2ccc(=O)oc2c1 (stereo not drawn) [EV 04084],−0.01
15,C=C(C)C1CC=C(COc2ccc3ccc(=O)oc3c2)CC1 (stereo not drawn) [EV 04090],0.40
16,CCC(C)COc1ccc2ccc(=O)oc2c1 (stereo not drawn) [EV 04094],0.73
17,CCC(CC)Oc1ccc2ccc(=O)oc2c1 [EV 04114],0.86
18,CC(=O)OC(C)C(=O)Oc1ccc2ccc(=O)oc2c1 (stereo not drawn) [EV 04122],−0.36
19,CC(C)COC1CCC2CCC(=O)OC2C1 (stereo not drawn) [EV 04188],0.65

row,SMILES,Repellency Index
1,COC(=O)/C=C/c1ccccc1O [EV 05056],0.40
2,CCN(CC)C(=O)c1ccc2ccc(=O)oc2c1 [EV 05084],0.30
3,O=C(COc1ccc2ccc(=O)oc2c1)N1CCCCC1 [EV 05088],0.07
4,CCN(CC)C(=O)COc1ccc2ccc(=O)oc2c1 [EV 05096],0.80
5,O=C(c1ccc2ccc(=O)oc2c1)N1CCCCC1 [EV 05118],−0.10
6,CCCCN(CCCC)C(=O)COc1ccc2ccc(=O)oc2c1 [EV 05120],0.71
7,CC1CCCCN1C(=O)COc1ccc2ccc(=O)oc2c1 (stereo not drawn) [EV 05134],0.78
8,CCCCN(CCCC)C(=O)c1ccc2ccc(=O)oc2c1 [EV 05138],0.72
9,CC1CCCCN1C(=O)c1ccc2ccc(=O)oc2c1 (stereo not drawn) [EV 05144],0.60
10,CCC(CC)OC(=O)c1ccc2ccc(=O)oc2c1 [EV 05162],0.62
11,CCC(CC)OC(=O)COc1ccc2ccc(=O)oc2c1 [EV 05174],0.69
12,CCC(C)OC(=O)c1ccc2ccc(=O)oc2c1 (stereo not drawn) [EV 05178],0.71
13,CCC(CC)Oc1ccc2oc(=O)ccc2c1 [EV 06018],0.43
14,CCCCCOc1ccc2ccc(=O)oc2c1 [EV 06026],0.88
15,CC(C)C(C)Oc1ccc2ccc(=O)oc2c1 (stereo not drawn) [EV 06028],0.88
16,CC(C)CCOc1ccc2ccc(=O)oc2c1 [EV 06036],0.73
17,CCCC(C)Oc1ccc2ccc(=O)oc2c1 (stereo not drawn) [EV 06044],0.92
18,CCC(C)OC(=O)COc1ccc2ccc(=O)oc2c1 (stereo not drawn) [EV 06046],0.08
19,CCC(C)COC(=O)COc1ccc2ccc(=O)oc2c1 (stereo not drawn) [EV 06058],0.52

row,SMILES,Repellency Index
1,CCC(CC)Cc1cc(=O)oc2ccccc12 [EV 06062],0.97
2,CCC(C)Oc1ccc2oc(=O)ccc2c1 (stereo not drawn) [EV 06068],0.88
3,CCC(C)Oc1cc(=O)oc2ccccc12 (stereo not drawn) [EV 06088],0.82
4,CCCCCCCCN(CCCCCCCC)C(=O)COc1ccc2ccc(=O)oc2c1 [EV 06092],0.35
5,CCCCCCCCN(CCCCCCCC)C(=O)c1ccc2ccc(=O)oc2c1 [EV 06096],0.91
6,CCCC(C)Oc1cc(=O)oc2ccccc12 (stereo not drawn) [EV 06098],0.95
7,CCCCCCOc1ccc2ccc(=O)oc2c1 [EV 06110],0.78
8,CC(C)C(C)Oc1cc(=O)oc2ccccc12 (stereo not drawn) [EV 06128],0.34
9,CCCCCOc1cc(=O)oc2ccccc12 [EV 06136],0.77
10,CC(C)CCOc1cc(=O)oc2ccccc12 [EV 06140],0.84
11,CCCCCCCCOc1ccc2ccc(=O)oc2c1 [EV 06144],0.83
12,CCCCCCC(C)Oc1ccc2ccc(=O)oc2c1 (stereo not drawn) [EV 06148],0.92
13,CCCC(C)Oc1ccc2oc(=O)ccc2c1 (stereo not drawn) [EV 06154],0.93
14,CC(C)(C)COc1ccc2ccc(=O)oc2c1 [EV 06162],−0.55
15,CCC(C)NC(=O)c1ccc2ccc(=O)oc2c1 (stereo not drawn) [EV 06166],0.25
16,CCC(C)OC(=O)COc1ccc2ccc(=O)oc2c1 (stereo not drawn) [EV 06178],0.25
17,CCC(C)Oc1ccc2ccc(=O)oc2c1 (stereo not drawn) [EV 06188],0.87
18,CCCCCCCCN(CCCCCCCC)C(=O)COc1cc(=O)oc2ccccc12 [EV 07068],0.98

# Same assay, conditions: values used as class thresholds
row,SMILES,repellency index (RI) of reference repellents
1,"CCN(CC)C(=O)c1cccc(C)c1 [DEET, N,N-Diethyl-meta-toluamide]",0.83
2,"CCC(C)OC(=O)N1CCCCC1CCO (stereo not drawn) [Picaridine, reference compound]",0.70

# Reference: patent publication US20130079394A1, “Indirect modeling of new repellent molecules active against insects, acarids, and other arthropods” (CNRS (CENTRE NATIONAL RECHERCHE SCIENTIFIQUE), priority 2011, published 2013)
